One experiment has as its target SMARCA4 (Homo sapiens (Human), UniProt P51532). In words: SMARCA4 HiBiT degradation assay in HeLa cells. The class given is cell-based. The settings on record: 18 hours; for DC50: read-out: DC50 (SM4-HeLa) SMARCA4 degradation potency; for Dmax: HeLa, read-out: Dmax % (SM4-HeLa) maximum SMARCA4 degradation within the concentrations tested. The procedure: (§1) HiBiT peptide knock-in of SMARCA2 in LgBiT expressing HEK293T cells was performed by CRISPR-mediated tagging system as described Promega. The homozygous HiBiT knock-in on c-terminus SMARCA2 was confirmed by sanger sequence. SMARCA2-HiBiT knock-in Hela monoclonal cell (CS302366) and SMARCA4-HiBiT knock-in Hela monoclonal cell (CS3023226) were purchased from Promega. The heterozygous HiBiT-knock-in was confirmed by sanger sequence in both SMARCA2-HiBiT and SMARCA4-HiBiT monoclonal cells.
(§2) Dispense 10 μL aliquot of prepared Hela-SMARCA2-HiBiT or Hela-SMARCA4-HiBiT cells (1:1 ratio of cells:Trypan Blue (#1450013, Bio-Rad)) onto cell counting slide (#145-0011, Bio-Rad) and obtain cell density and cell viability using cell counter (TC20, Bio-Rad). Remove appropriate volume of resuspended cells from culture flask to accommodate 2500 cells/well @ 20 μL/well. Transfer Hela-HiBiT cells to 50 ml conical (#430290, Corning). Spin down at 1000 rpm for 5 min using tabletop centrifuge (SPINCHRON 15, Beckman). Discard supernatant and resuspend cell pellet in modified EMEM (#30-2003, ATCC) cell culture media containing 10% FBS (F2422-500ML, Sigma), and 1×Penicillin/Streptomycin (200 g/1) (30-002-CI, Corning) to a cell density of 125,000 cells/ml. Dispense 20 μL of resuspended Hela-HiBit cells per well in 384-well TC treated plate (#12-565-343, Thermo Scientific) using standard cassette (#50950372, Thermo Scientific) on Multidrop Combi (#5840310, Thermo Scientific) inside laminar flow cabinet. Dispense test compounds onto plates using digital liquid dispenser (D300E, Tecan). Incubate plates in humidified tissue culture incubator @37° C. for 18 hours. Add 20 ul of prepared Nano-Glo® HiBiT Lytic detection buffer (N3050, Promega) to each well of 384-well plate using small tube cassette (#24073295, Thermo Scientific) on Multidrop Combi, incubate @ RT for 30-60 min. Read plates on microplate reader (Envision 2105, PerkinElmer) using 384 well Ultra-Sensitive luminescence mode. Raw data files and compound information reports are swept into centralized data lake and deconvoluted using automated scripts designed by TetraScience, Inc. Data analysis, curve-fitting and reporting done in Dotmatics Informatics Suite using Screening Ultra module.
In general terms: The HiBiT peptide binds its large partner to form an active luciferase.

The target of another experiment is SMARCA2 (Homo sapiens (Human), UniProt P51531). In words: SMARCA2 HiBiT degradation assay in HeLa cells. The following applies: 18 hours; for DC50: read-out: DC50 (SM2-HeLa) SMARCA2 degradation potency; for Dmax: read-out: Dmax % (SM2-HeLa) maximum SMARCA2 degradation within the concentrations tested. The experiment is classed as cell-based. Here is the method: as §1, §2

Data on ten molecules can be found in patent publication US20240018158A1, “BRM TARGETING COMPOUNDS AND ASSOCIATED METHODS OF USE” (Prelude Therapeutics Incorporated, priority 2020, published 2024).

One may read the DC50 as the midpoint of the concentration-degradation curve.

SMARCA4, sequence (P51532 whole entry): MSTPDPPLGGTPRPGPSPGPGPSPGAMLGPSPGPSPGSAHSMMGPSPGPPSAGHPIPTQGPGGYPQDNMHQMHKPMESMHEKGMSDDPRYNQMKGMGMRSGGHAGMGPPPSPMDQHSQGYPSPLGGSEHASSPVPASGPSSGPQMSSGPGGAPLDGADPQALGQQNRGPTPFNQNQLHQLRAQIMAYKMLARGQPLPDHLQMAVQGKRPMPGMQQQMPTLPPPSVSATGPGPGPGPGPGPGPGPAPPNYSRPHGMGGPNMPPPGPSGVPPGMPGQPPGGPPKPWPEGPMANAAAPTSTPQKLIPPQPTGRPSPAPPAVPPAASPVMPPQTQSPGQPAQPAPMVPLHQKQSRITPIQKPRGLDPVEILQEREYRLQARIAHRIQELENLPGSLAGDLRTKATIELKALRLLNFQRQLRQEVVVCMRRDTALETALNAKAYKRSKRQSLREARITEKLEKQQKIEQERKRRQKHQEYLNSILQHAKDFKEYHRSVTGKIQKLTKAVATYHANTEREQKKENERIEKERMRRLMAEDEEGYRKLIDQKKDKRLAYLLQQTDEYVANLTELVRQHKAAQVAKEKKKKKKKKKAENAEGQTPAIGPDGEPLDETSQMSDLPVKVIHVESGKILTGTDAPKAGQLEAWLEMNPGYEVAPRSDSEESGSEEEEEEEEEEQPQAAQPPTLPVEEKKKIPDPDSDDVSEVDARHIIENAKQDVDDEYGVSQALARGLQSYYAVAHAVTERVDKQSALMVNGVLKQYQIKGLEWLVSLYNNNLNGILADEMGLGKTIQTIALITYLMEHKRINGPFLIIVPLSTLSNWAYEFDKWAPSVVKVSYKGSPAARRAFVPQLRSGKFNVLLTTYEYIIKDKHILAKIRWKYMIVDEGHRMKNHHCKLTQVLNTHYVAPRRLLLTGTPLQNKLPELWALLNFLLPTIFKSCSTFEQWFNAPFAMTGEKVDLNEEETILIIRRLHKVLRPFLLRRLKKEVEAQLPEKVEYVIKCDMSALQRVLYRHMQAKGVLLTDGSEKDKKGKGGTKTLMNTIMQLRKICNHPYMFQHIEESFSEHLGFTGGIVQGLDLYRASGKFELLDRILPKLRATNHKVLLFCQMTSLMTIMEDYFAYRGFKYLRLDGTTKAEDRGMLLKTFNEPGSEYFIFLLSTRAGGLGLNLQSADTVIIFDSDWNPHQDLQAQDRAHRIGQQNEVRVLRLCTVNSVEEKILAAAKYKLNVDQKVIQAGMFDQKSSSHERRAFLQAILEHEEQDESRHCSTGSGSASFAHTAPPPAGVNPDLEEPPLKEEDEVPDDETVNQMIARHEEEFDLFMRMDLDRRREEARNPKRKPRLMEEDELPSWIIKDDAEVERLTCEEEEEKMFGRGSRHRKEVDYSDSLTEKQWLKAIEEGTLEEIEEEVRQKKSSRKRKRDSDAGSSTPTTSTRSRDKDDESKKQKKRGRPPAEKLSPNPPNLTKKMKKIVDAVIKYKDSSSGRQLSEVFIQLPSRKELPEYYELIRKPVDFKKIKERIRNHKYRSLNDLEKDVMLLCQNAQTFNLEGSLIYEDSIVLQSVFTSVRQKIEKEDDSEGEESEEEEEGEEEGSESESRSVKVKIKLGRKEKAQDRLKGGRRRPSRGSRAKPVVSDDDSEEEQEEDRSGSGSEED
SMARCA2, sequence (P51531 whole entry): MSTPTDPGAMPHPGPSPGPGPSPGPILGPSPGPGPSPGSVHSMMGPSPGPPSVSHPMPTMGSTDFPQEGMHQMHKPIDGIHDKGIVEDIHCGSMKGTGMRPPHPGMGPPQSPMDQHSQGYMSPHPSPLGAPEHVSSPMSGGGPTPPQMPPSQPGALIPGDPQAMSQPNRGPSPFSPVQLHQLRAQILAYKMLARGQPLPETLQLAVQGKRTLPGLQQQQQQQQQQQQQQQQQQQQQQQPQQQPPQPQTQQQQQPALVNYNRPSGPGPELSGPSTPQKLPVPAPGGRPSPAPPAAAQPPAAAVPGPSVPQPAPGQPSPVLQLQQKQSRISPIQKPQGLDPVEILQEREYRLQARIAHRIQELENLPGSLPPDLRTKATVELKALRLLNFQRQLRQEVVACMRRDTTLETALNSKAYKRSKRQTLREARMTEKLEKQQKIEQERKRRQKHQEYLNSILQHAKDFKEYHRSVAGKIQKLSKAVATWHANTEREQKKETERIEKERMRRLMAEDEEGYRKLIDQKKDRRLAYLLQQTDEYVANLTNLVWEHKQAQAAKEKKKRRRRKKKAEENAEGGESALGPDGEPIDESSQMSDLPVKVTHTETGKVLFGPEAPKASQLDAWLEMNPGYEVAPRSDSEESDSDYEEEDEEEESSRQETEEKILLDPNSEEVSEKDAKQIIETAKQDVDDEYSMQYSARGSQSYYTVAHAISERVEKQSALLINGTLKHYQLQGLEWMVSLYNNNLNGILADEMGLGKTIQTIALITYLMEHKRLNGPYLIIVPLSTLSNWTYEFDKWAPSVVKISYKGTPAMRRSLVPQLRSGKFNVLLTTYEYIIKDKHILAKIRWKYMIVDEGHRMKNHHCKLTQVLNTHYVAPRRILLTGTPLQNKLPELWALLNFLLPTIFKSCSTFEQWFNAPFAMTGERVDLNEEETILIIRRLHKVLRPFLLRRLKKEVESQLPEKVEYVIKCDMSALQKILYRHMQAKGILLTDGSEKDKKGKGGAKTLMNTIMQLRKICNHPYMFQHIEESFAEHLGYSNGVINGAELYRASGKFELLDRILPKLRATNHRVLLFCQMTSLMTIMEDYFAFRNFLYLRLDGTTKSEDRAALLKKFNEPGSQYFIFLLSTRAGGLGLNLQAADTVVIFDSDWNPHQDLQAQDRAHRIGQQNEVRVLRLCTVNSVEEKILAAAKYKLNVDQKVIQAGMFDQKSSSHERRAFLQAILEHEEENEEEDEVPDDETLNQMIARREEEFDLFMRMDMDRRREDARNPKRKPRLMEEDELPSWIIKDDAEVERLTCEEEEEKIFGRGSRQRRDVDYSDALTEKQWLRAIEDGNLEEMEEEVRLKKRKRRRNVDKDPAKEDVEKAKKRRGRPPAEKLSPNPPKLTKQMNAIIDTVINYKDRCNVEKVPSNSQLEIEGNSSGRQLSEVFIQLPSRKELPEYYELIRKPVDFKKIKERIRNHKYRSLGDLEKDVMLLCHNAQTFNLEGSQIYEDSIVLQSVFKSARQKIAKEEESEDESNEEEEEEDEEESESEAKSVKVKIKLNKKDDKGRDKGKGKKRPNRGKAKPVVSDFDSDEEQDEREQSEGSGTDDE

Consider `Cc1ncsc1-c1ccc([C@H](C)NC(=O)[C@@H]2C[C@@H](O)CN2C(=O)C(c2cc(CCN(C)CCN3CCN4c5cc(-c6ccccc6O)nnc5NC[C@H]4C3)no2)C(C)C)cc1` (stereo partly drawn) [Example 34, (2S,4R)-4-hydroxy-1-(2-(3-(2-((2-((S)-2-(2-hydroxyphenyl)-5,6,6a,7,9,10-hexahydro-8H-pyrazino[1′,2′:4,5]pyrazino[2,3-c]pyridazin-8-yl)ethyl)(methyl)amino)ethyl)isoxazol-5-yl)-3-methylbutanoyl)N-((S)-1-(4-(4-methylthiazol-5-yl)phenyl)ethyl)pyrrolidine-2-carboxamide], for which, on SMARCA4, the DC50 was not below 10000 nM and the Dmax was not above 50%. For the same molecule, at SMARCA2, the DC50 is less than 100 nM and the Dmax was more than 75%.

In the case of `Cc1ncsc1-c1ccc([C@H](C)NC(=O)[C@@H]2C[C@@H](O)CN2C(=O)[C@@H](c2cc(OCCN3CCC(CN4CCN5c6cc(-c7ccccc7O)nnc6NC[C@H]5C4)CC3)no2)C(C)C)cc1` [Example 38, (2S,4R)-4-hydroxy-1-((R)-2-(3-(2-(4-(((S)-2-(2-hydroxyphenyl)-5,6,6a,7,9,10-hexahydro-8H-pyrazino[1′,2′:4,5]pyrazino[2,3-c]pyridazin-8-yl)methyl)piperidin-1-yl)ethoxy)isoxazol-5-yl)-3-methylbutanoyl)-N-((S)-1-(4-(4-methylthiazol-5-yl)phenyl)ethyl)pyrrolidine-2-carboxamide], on SMARCA4, the DC50 is less than 100 nM and the Dmax is more than 75%. Besides, at SMARCA2, the DC50 is less than 100 nM and the Dmax was more than 75%.

As for `Cc1ncsc1-c1ccc([C@H](C)NC(=O)[C@@H]2C[C@@H](O)CN2C(=O)[C@@H](c2cc(OCCN(C)C3CCC(N4CCN5c6cc(-c7ccccc7O)nnc6NC[C@H]5C4)CC3)no2)C(C)C)cc1` (stereo partly drawn) [Example 43, (2S,4R)-4-hydroxy-1-((R)-2-(3-(2-((4-((S)-2-(2-hydroxyphenyl)-5,6,6a,7,9,10-hexahydro-8H-pyrazino[1′,2′:4,5]pyrazino[2,3-c]pyridazin-8-yl)cyclohexyl)(methyl)amino)ethoxy)isoxazol-5-yl)-3-methylbutanoyl)-N-((S)-1-(4-(4-methylthiazol-5-yl)phenyl)ethyl)pyrrolidine-2-carboxamide], the half-maximal degradation concentration (DC50) at SMARCA4 and at SMARCA2 was less than 100 nM each time. For the same molecule, the Dmax on SMARCA4 and on SMARCA2 was more than 75% each time.

As to `Cc1ncsc1-c1ccc([C@H](C)NC(=O)[C@@H]2C[C@@H](O)CN2C(=O)[C@@H](c2cc(CCCN3CCCC(N4CCN5c6cc(-c7ccccc7O)nnc6NC[C@H]5C4)C3)no2)C(C)C)cc1` (stereo partly drawn) [Example 45, (2S,4R)-4-hydroxy-1-((2R)-2-(3-(3-(3-((S)-2-(2-hydroxyphenyl)-5,6,6a,7,9,10-hexahydro-8H-pyrazino[1′,2′:4,5]pyrazino[2,3-c]pyridazin-8-yl)piperidin-1-yl)propyl)isoxazol-5-yl)-3-methylbutanoyl)-N-((S)-1-(4-(4-methylthiazol-5-yl)phenyl)ethyl)pyrrolidine-2-carboxamide], on SMARCA4, the half-maximal degradation concentration (DC50) was less than 100 nM and the Dmax fell in the range of 50 to 75%. Further, on SMARCA2, the half-maximal degradation concentration (DC50) was less than 100 nM and the Dmax is more than 75%.

As for `Cc1ncsc1-c1ccc([C@H](CO)NC(=O)[C@@H]2C[C@@H](O)CN2C(=O)C(c2cc(OCCN3CCC(CN4CCN5c6cc(-c7ccccc7O)nnc6NC[C@H]5C4)CC3)no2)C(C)C)cc1` (stereo partly drawn) [Example 46, (2S,4R)-4-hydroxy-N-((R)-2-hydroxy-1-(4-(4-methylthiazol-5-yl)phenyl)ethyl)-1-(2-(3-(2-(4-(((S)-2-(2-hydroxyphenyl)-5,6,6a,7,9,10-hexahydro-8H-pyrazino[1′,2′:4,5]pyrazino[2,3-c]pyridazin-8-yl)methyl)piperidin-1-yl)ethoxy)isoxazol-5-yl)-3-methylbutanoyl)pyrrolidine-2-carboxamide], at SMARCA4, the DC50 lay within 100 to 1000 nM and the Dmax was more than 75%. Besides, at SMARCA2, the half-maximal degradation concentration (DC50) was less than 100 nM and the Dmax was more than 75%.

On to `Cc1ncsc1-c1ccc([C@H](C)NC(=O)[C@@H]2C[C@@H](O)CN2C(=O)[C@@H](c2cc(OCCN3CC4CC(N5CCN6c7cc(-c8ccccc8O)nnc7NC[C@H]6C5)CC4C3)no2)C(C)C)cc1` (stereo partly drawn) [Example 47, (2S,4R)-4-hydroxy-1-((2R)-2-(3-(2-(5-((S)-2-(2-hydroxyphenyl)-5,6,6a,7,9,10-hexahydro-8H-pyrazino[1′,2′:4,5]pyrazino[2,3-c]pyridazin-8-yl)hexahydrocyclopenta[c]pyrrol-2(1H)-yl)ethoxy)isoxazol-5-yl)-3-methylbutanoyl)-N-((S)-1-(4-(4-methylthiazol-5-yl)phenyl)ethyl)pyrrolidine-2-carboxamide], for which the 50% degradation concentration (DC50) on SMARCA4 and on SMARCA2 was less than 100 nM throughout. For the same molecule, the Dmax at SMARCA4 and on SMARCA2 was more than 75% throughout.

Regarding `Cc1ncsc1-c1ccc([C@H](C)NC(=O)[C@@H]2C[C@@H](O)CN2C(=O)[C@@H](c2cc(O[C@@H](C)CN3CCC(N4CCN5c6cc(-c7ccccc7O)nnc6NC[C@H]5C4)C3)no2)C(C)C)cc1` (stereo partly drawn) [Example 48, (2S,4R)-4-hydroxy-1-((2R)-2-(3-(((2S)-1-(3-((S)-2-(2-hydroxyphenyl)-5,6,6a,7,9,10-hexahydro-8H-pyrazino[1′,2′:4,5]pyrazino[2,3-c]pyridazin-8-yl)pyrrolidin-1-yl)propan-2-yl)oxy)isoxazol-5-yl)-3-methylbutanoyl)N-((S)-1-(4-(4-methylthiazol-5-yl)phenyl)ethyl)pyrrolidine-2-carboxamide], at SMARCA4, the “Dmax % (SM4-HeLa) maximum SMARCA4 degradation within the concentrations tested” value is recorded as “B (B = 50%< Dmax <=75%)” and the DC50 is less than 100 nM. For the same molecule, on SMARCA2, the 50% degradation concentration (DC50) was less than 100 nM and the Dmax was more than 75%.

As for `Cc1ncsc1-c1ccc([C@H](C)NC(=O)[C@@H]2C[C@@H](O)CN2C(=O)[C@@H](c2cc(O[C@@H](C)CN3CCC(N4CCN5c6cc(-c7ccccc7O)nnc6NC[C@H]5C4)C3)no2)C(C)C)cc1` (stereo partly drawn) [Example 49, (2S,4R)-4-hydroxy-1-((2R)-2-(3-(((2S)-1-(3-((S)-2-(2-hydroxyphenyl)-5,6,6a,7,9,10-hexahydro-8H-pyrazino[1′,2′:4,5]pyrazino[2,3-c]pyridazin-8-yl)pyrrolidin-1-yl)propan-2-yl)oxy)isoxazol-5-yl)-3-methylbutanoyl)-N-((S)-1-(4-(4-methylthiazol-5-yl)phenyl)ethyl)pyrrolidine-2-carboxamide], on SMARCA4, the “Dmax % (SM4-HeLa) maximum SMARCA4 degradation within the concentrations tested” value is “A/A (A = Dmax >75%)” and the 50% degradation concentration (DC50) was less than 100 nM. In addition, at SMARCA2, the “Dmax % (SM2-HeLa) maximum SMARCA2 degradation within the concentrations tested” value is “A/A (A = Dmax >75%)” and the DC50 is less than 100 nM.

As to `Cc1ncsc1-c1ccc([C@H](C)NC(=O)[C@@H]2C[C@@H](O)CN2C(=O)[C@@H](c2cc(OCCN3CCC(N4CCN5c6cc(-c7ccccc7O)nnc6NC[C@H]5C4)CC3C)no2)C(C)C)cc1` (stereo partly drawn) [Example 54, (2S,4R)-4-hydroxy-1-((2R)-2-(3-(2-(4-((S)-2-(2-hydroxyphenyl)-5,6,6a,7,9,10-hexahydro-8H-pyrazino[1′,2′:4,5]pyrazino[2,3-c]pyridazin-8-yl)-2-methylpiperidin-1-yl)ethoxy)isoxazol-5-yl)-3-methylbutanoyl)-N-((S)-1-(4-(4-methylthiazol-5-yl)phenyl)ethyl)pyrrolidine-2-carboxamide], at SMARCA4, the half-maximal degradation concentration (DC50) is less than 100 nM and the Dmax was more than 75%. At SMARCA2, the DC50 was less than 100 nM and the Dmax is more than 75%.

Regarding `Cc1ncsc1-c1ccc([C@H](C)NC(=O)[C@@H]2C[C@@H](O)CN2C(=O)[C@@H](c2cc(OC(C)CN3CCC(N4CCN5c6cc(-c7ccccc7O)nnc6NC[C@H]5C4)CC3)no2)C(C)C)cc1` (stereo partly drawn) [Example 57, (2S,4R)-4-hydroxy-1-((2R)-2-(3-((1-(4-((S)-2-(2-hydroxyphenyl)-5,6,6a,7,9,10-hexahydro-8H-pyrazino[1′,2′:4,5]pyrazino[2,3-c]pyridazin-8-yl)piperidin-1-yl)propan-2-yl)oxy)isoxazol-5-yl)-3-methylbutanoyl)-N-((S)-1-(4-(4-methylthiazol-5-yl)phenyl)ethyl)pyrrolidine-2-carboxamide], on SMARCA4, the half-maximal degradation concentration (DC50) is 100 to 1000 nM and the Dmax lay in the range of 50 to 75%. In addition, at SMARCA2, the half-maximal degradation concentration (DC50) is less than 100 nM and the Dmax is more than 75%.
